# In US20240398694A1, “SKINCARE COMPOSITION CONTAINING SHATAVARI EXTRACT” (Bangkok Lab and Cosmetic Public Company Limited, priority 2023, published 2024):
# “And” between values parts separate entries of the source, which are not always exact repeats. Equal entries are not always repeated. Where two headings read alike, the source gives them in different places.
# Columns and labels:
# [1] = tested on: prostate cancer cells DU-145; settings: human
# Excerpt: (§1) Prostate cancer cells are the representatives of the study of 5α-reductase inhibition activity due to the production of 5α-reductase in prostate cancer cells.
# [2] = tested on: 5α-reductase; assay: 5α-reductase inhibition activity in prostate cancer cells DU-145; assay type: cell-based, human; settings: FIG. 5, lanes 3 and 4 vs control lane 2
# Excerpt: as §1
# [3] = tested on: breast cancer cells MCF7; assay: Estrogen hormone stimulation activity: % survival of breast cancer cells MCF7; assay type: cell-based, human
# Excerpt: Breast cancer cells are the representatives of the study of estrogen receptor stimulation activity because breast cancer cells are responsible for estrogen hormone.
# [4] = Free-radical nitric oxide binding using Griess reagent; settings: triplicate
# Excerpt: (§2) These are used in free-radical binding studies by the DPPH method and in free-radical nitric oxide binding using Griess reagent.
# [5] = applying 10% vitamin C; cited from earlier work
# [6] = Free-radical DPPH binding study
# Excerpt: From the free-radical DPPH binding study, Shatavari extract has an SC50 of 5.92+0.03 milligrams per milliliter. […] Also, the free-radical DPPH binding activity of non-diluted Shatavari extract is 91.15+0.97%.
# as §2
structure (smiles),measurement,setting,value
CC(C)(C)NC(=O)[C@H]1CC[C@H]2[C@@H]3CC[C@H]4NC(=O)C=C[C@]4(C)[C@H]3CC[C@]12C [finasteride],highest concentration non-cytotoxic to prostate cancer cells DU-145,[1],10 micrograms per milliliter
same,% Survival of prostate cancer cells DU-145 (means ± S.D.),[1]; 0.01 μg/mL,100.19%
same,% Survival of prostate cancer cells DU-145 (means ± S.D.),[1]; 0.1 μg/mL,99.75%
same,% Survival of prostate cancer cells DU-145 (means ± S.D.),[1]; 1 μg/mL,94.89%
same,% Survival of prostate cancer cells DU-145 (means ± S.D.),[1]; 100 μg/mL,0%
same,agarose gel band of 5α-reductase DNA (700-bp fragment) from treated DU-145 cells,[2],faded
C[C@]12CC[C@@H]3c4ccc(O)cc4CC[C@H]3[C@@H]1CC[C@@H]2O [β-estradiol],% survival of breast cancer cells MCF7 (means ± S.D.),[3]; concentration 0.1 μg/mL,92.14%
same,% survival of breast cancer cells MCF7 (means ± S.D.),[3]; concentration 1 μg/mL,101.82%
same,% survival of breast cancer cells MCF7 (means ± S.D.),[3]; concentration 10 μg/mL,98.84%
same,% survival of breast cancer cells MCF7 (means ± S.D.),[3]; concentration 100 μg/mL,96.53%
same,% survival of breast cancer cells MCF7 (means ± S.D.),"[3]; concentration 1,000 μg/mL",107.2% and 107.20 ± 5.37%
"O=C1O[C@H]([C@@H](O)CO)C(O)=C1O [vitamin C, L-ascorbic acid]",IC50 of free-radical nitric oxide binding,[4],0.84 ± 0.02 milligrams per milliliter
same,reduction of sunburn,[5],40-60%
same,reduction of the skin's redness from UVB exposure,[5],52%
same,SC50 (IC50) of free-radical DPPH binding,[6],0.02 ± 0.01 milligrams per milliliter
